The values below come from patent publication US7825294B2 (priority 2006, dated 2010).

Holding throughout (type): cell-based
In experiment [1] the test system is Fusarium graminearum (FGR). The note with it: standard plate assay, 4,000 spores/mL, ¼× potato dextrose broth, 28° C., 24 to 48 hours.
In another experiment the test system is Diplodia maydis (DMA). The conditions noted are these: standard plate assay, 6,000 spores/mL, ¼× potato dextrose broth, 28° C., 24 to 48 hours.
Experiment [2] concerns Fusarium verticillioides (FVE).
In experiment [3] the test system is Colectotricum graminicola (CGR). The conditions noted are these: standard plate assay, 4,000 spores/mL, ¼× Czapec-Dox V8, 28° C., 24 to 48 hours.

As for “Domain B (SPKKDEHEHCGKHASFNEEKKECVCHDKSEVFEKHHKKCKKAKDEKKKDDKKH; Domain B of SEQ ID NO34)”, in experiment [1], the “antifungal activity against FGR” value was “showed antifungal activity to varying extents”.

As for “SEQ ID NO:1: antipathogenic polypeptide (52 amino acids) isolated from a fungal fermentation broth extract of Fusarium oxysporum, designated LB-12265 (SILHHCGKHASWDHAKSECVCHDSGKVYTKKHHKCKCPKGEKWHHIEKKCKK; PEPTIDE (1)...(52) Predicted mature LB-12265 peptide; listed as Fusarium oxysporum)”, the “antifungal activity against FGR” value in experiment [1] is “showed antifungal activity”. Besides, in the experiment on Diplodia maydis (DMA), the “antifungal activity against DMA” value is “showed antifungal activity”. In experiment [2], the “antifungal activity against FVE” value was “showed antifungal activity”. In experiment [3], the “antifungal activity against CGR” value is listed as “showed antifungal activity”.

“Domain C (KKDKHHDHCGKHASYSEEKKECVCHNKAEVFERKHKKCKKHISLR; Domain C of SEQ ID NO34)”: in experiment [1], the “antifungal activity against FGR” value is recorded as “showed antifungal activity to varying extents”.

Turning to “SEQ ID NO:3: deduced amino acid sequence encoded by a nucleotide sequence from a fungal contaminant, most likely Fusarium, of a proprietary maize EST library (SILHHCGKHASWDHAKSECVCHDSGKVYTKKHHKCKCPKGEKWHHIEKKCKK; Deduced amino acid sequence encoded by SEQ ID NO4 from a fungal contaminant of Zea mays)”, in experiment [2], the “antifungal activity against FVE” value is recorded as “has antifungal activity”.

As to “Domain D (SIFNHCGRHAYYDEAKKECICHDAGKDFLKKHKTCACPQGEKWHHIERKCKA; Domain D of SEQ ID NO34)”, the “antifungal activity against FGR” value in experiment [1] is recorded as “showed antifungal activity to varying extents”.

B1: SEQ ID NO:11: Q174 protein isolated from Hypocrea lixii (Accession No. CAA64974) (protein, listed as Hypocrea lixii)
chain: MLLKQVLVAALLSLSSVTAFPNPNNLHDVEARDVEDNLVARGGSHDCGSYASWNNGKNCCVCKDNGKNYDSKSKSCNCPSGYTWNGHQCVHDCGKDATWQYGNCVCNKKGEVYNPKDKTCSCPPGQYWNGKNCQVDCGKDASYDYKQKKCVCKKHGEIYNSNSKTCSCPPGQVWNGYACVVDCGKEAHFDNKQKKCVCNNYGEIYNSGSKTCACPGGQYFNGKKCVCPYGKVWNGKQCVEDCGKEAHFDYNQKKCVCKNNGEVYNSAKKTCSCPDGQYWNGKQCVCPYGQVFNGKQCVPDCGKEATFDYNQKKCVCKNKGEIYDSKTKTCSCPDGQVWNGKQCVCPYGQVFNGKQCVPDCGKDATYDYNQKKCVCKNKGEVFDQKTKTCSCPDGQYWNGKQCACPYGQIFNGKQCVPDCGKDATYDYNQKKCVCKNKGEVFDQKTKTCSCPDGQYWNGKQCVCPYGKIFDGKQCVEDCGKDAHFDNNQKKCVCNKNGEIYDSKSKTCSCPDSQYWDGSKCACPYGTVWDGKHCNQDCGKDAHFDSNQKKCVCNKQGEVYDSKSKTCSCPDGQYWDGSKCACPYGKVWDGKQCVPNCGKDASYDSKQNKCVCKNIGQVFDTKSLTCSCPAGTSWNGHACVQDCGKDAHYDSNQKCCVCNNKGESYDSKSKTCSCPGNQYWDGNKCACPYGSTWDSSKKTCKMNYP
Take B1: the “antifungal activity against FGR” value in experiment [1] is “showed antifungal activity to varying extents”. Further, the “antifungal activity against DMA” value with Diplodia maydis (DMA) was “showed antifungal activity to varying extents”. The “antifungal activity against FVE” value in experiment [2] is “showed antifungal activity to varying extents”. For the same molecule, in experiment [3], the “antifungal activity against CGR” value was “showed antifungal activity to varying extents”.
